Reference: the NIST ThermoML archive (doi:10.1016/j.jct.2007.05.016)

Test: xn = mol fraction of the nth substance listed
Conditions: 101 kPa, Liquid; for speed of sound: Sing-around technique in a fixed-path interferometer

CCCCCCCCCC [decane] + CCCCO
Conditions | mass density, 298.15 K [kg/m3] | mass density, 303.15 K [kg/m3] | mass density, 308.15 K [kg/m3] | speed of sound, 298.15 K [m/s] | speed of sound, 303.15 K [m/s] | speed of sound, 308.15 K [m/s] | viscosity, 298.15 K [mPa·s]
x2 = 0 | 726.806 | 723.042 | 719.23 | 1234.8 | 1215.2 | 1195.6 | 0.852
x2 = 0.0678 | 728.769 | 724.903 | 721.031 | 1230.4 | 1210.6 | 1191.9 | 0.845
x2 = 0.1105 | 730.259 | 726.415 | 722.511 | 1228.8 | 1209.1 | 1189.4 | 0.855
x2 = 0.1614 | 732.194 | 728.365 | 724.437 | 1227.3 | 1207.6 | 1187.9 | 0.868
x2 = 0.2372 | 735.44 | 731.639 | 727.679 | 1225.4 | 1206.1 | 1185.5 | 0.895
x2 = 0.3068 | 738.779 | 734.994 | 731.004 | 1224.1 | 1204.5 | 1184.6 | 0.931
x2 = 0.4278 | 745.484 | 741.679 | 737.66 | 1222.9 | 1203.7 | 1183.8 | 1.019
x2 = 0.5071 | 750.606 | 746.798 | 742.769 | 1222.8 | 1203.8 | 1184.3 | 1.102
x2 = 0.5547 | 754.019 | 750.194 | 746.151 | 1222.9 | 1203.9 | 1184.8 | 1.164
x2 = 0.6068 | 758.098 | 754.237 | 750.219 | 1223.4 | 1204.5 | 1185.6 | 1.244
x2 = 0.7032 | 766.65 | 762.82 | 758.774 | 1224.9 | 1206.3 | 1187.6 | 1.432
x2 = 0.8036 | 777.321 | 773.625 | 769.593 | 1227.9 | 1210.2 | 1191.3 | 1.685
x2 = 0.8498 | 782.998 | 779.309 | 775.279 | 1229.9 | 1212.4 | 1194 | 1.843
x2 = 0.9015 | 790.035 | 786.406 | 782.421 | 1232.8 | 1215.7 | 1197.9 | 2.047
x2 = 0.95 | 797.464 | 794.041 | 790.078 | 1236.2 | 1219.9 | 1203.1 | 2.277

CCCCCC [hexane] + CCCCO
Conditions | mass density, 298.15 K [kg/m3] | mass density, 303.15 K [kg/m3] | mass density, 308.15 K [kg/m3] | speed of sound, 298.15 K [m/s] | speed of sound, 303.15 K [m/s] | speed of sound, 308.15 K [m/s] | viscosity, 298.15 K [mPa·s]
x2 = 0 | 655.072 | 650.369 | 645.767 | 1077.8 | 1055.2 | 1032.9 | 0.313
x2 = 0.0507 | 660.196 | 655.432 | 650.791 | 1077.6 | 1054.9 | 1032.7 | 0.323
x2 = 0.101 | 665.602 | 660.733 | 656.143 | 1079.4 | 1056.8 | 1034.5 | 0.338
x2 = 0.1524 | 671.434 | 666.54 | 661.908 | 1082.5 | 1059.9 | 1037.6 | 0.356
x2 = 0.2574 | 684.29 | 679.54 | 674.857 | 1091.7 | 1069.1 | 1046.8 | 0.409
x2 = 0.379 | 700.46 | 696.019 | 691.525 | 1106.3 | 1083.7 | 1062 | 0.505
x2 = 0.4125 | 705.163 | 700.869 | 696.345 | 1111.1 | 1088.5 | 1066.7 | 0.547
x2 = 0.4502 | 710.564 | 706.47 | 701.99 | 1116.7 | 1094.1 | 1072.3 | 0.587
x2 = 0.5121 | 719.663 | 715.869 | 711.606 | 1126.5 | 1103.9 | 1082.5 | 0.679
x2 = 0.6005 | 733.301 | 730.025 | 725.938 | 1141.9 | 1120.8 | 1099.2 | 0.854
x2 = 0.7004 | 749.66 | 746.763 | 742.943 | 1162.2 | 1141.1 | 1120.6 | 1.11
x2 = 0.8202 | 770.812 | 767.985 | 764.319 | 1190.9 | 1171.5 | 1151.5 | 1.541
x2 = 0.8523 | 776.78 | 773.953 | 770.292 | 1199 | 1179.9 | 1160.3 | 1.685
x2 = 0.8957 | 785.079 | 782.252 | 778.547 | 1210.5 | 1192.1 | 1172.9 | 1.901
x2 = 0.9476 | 795.298 | 792.462 | 788.743 | 1225.1 | 1207.9 | 1189.6 | 2.209

CCCCCCCC [octane] + CCCCO
Conditions | mass density, 298.15 K [kg/m3] | mass density, 303.15 K [kg/m3] | mass density, 308.15 K [kg/m3] | speed of sound, 298.15 K [m/s] | speed of sound, 303.15 K [m/s] | speed of sound, 308.15 K [m/s] | viscosity, 298.15 K [mPa·s]
x2 = 0 | 698.58 | 694.497 | 690.416 | 1172.7 | 1152.1 | 1131.7 | 0.518
x2 = 0.0563 | 701.448 | 697.299 | 693.192 | 1169.8 | 1149.2 | 1128.6 | 0.525
x2 = 0.1091 | 704.623 | 700.473 | 696.337 | 1169.4 | 1148.8 | 1128.2 | 0.54
x2 = 0.1579 | 707.716 | 703.646 | 699.455 | 1169.4 | 1149 | 1128.1 | 0.55
x2 = 0.2245 | 712.309 | 708.268 | 704.085 | 1170.1 | 1149.5 | 1129.2 | 0.585
x2 = 0.3117 | 718.911 | 714.997 | 710.775 | 1172.1 | 1151.8 | 1131.4 | 0.636
x2 = 0.4013 | 726.41 | 722.577 | 718.357 | 1175.4 | 1155.4 | 1135.6 | 0.708
x2 = 0.4519 | 731.021 | 727.253 | 723.057 | 1177.8 | 1158.1 | 1138 | 0.762
x2 = 0.5106 | 736.716 | 733.019 | 728.779 | 1181.2 | 1161.7 | 1141.9 | 0.837
x2 = 0.6032 | 746.6 | 742.919 | 738.734 | 1187.9 | 1169.1 | 1149.6 | 0.992
x2 = 0.7087 | 759.397 | 755.747 | 751.584 | 1197.5 | 1179.4 | 1160.3 | 1.232
x2 = 0.8063 | 772.907 | 769.349 | 765.239 | 1208.9 | 1191.2 | 1172.8 | 1.539
x2 = 0.8492 | 779.452 | 775.973 | 771.885 | 1214.9 | 1197.5 | 1179.4 | 1.711
x2 = 0.909 | 789.203 | 786.026 | 781.895 | 1223.7 | 1207.2 | 1189.3 | 1.991
x2 = 0.956 | 797.537 | 794.495 | 790.449 | 1231.9 | 1215.5 | 1198.8 | 2.262
